According to publication PMC12094722, “Small-molecule inhibitors of 6-phosphofructo-1-kinase simultaneously suppress lactate and superoxide generation in cancer cells” (PLOS One, 2025):
Values joined by “and” are separate entries in the source; they are usually repeats but may differ in a detail not shown here. Equal values may be shown once.

What was measured:
[1] = target: T1, native nPFK-M enzyme (85 kDa) (Homo sapiens, UniProt P08237); assay: PFK1 enzymatic assay, native nPFK-M; assay type: biochemical
T1 construct: made in house; host or cells: Saccharomyces cerevisiae pfk-null HD-114-8A
T1 sequence (P08237 1-780): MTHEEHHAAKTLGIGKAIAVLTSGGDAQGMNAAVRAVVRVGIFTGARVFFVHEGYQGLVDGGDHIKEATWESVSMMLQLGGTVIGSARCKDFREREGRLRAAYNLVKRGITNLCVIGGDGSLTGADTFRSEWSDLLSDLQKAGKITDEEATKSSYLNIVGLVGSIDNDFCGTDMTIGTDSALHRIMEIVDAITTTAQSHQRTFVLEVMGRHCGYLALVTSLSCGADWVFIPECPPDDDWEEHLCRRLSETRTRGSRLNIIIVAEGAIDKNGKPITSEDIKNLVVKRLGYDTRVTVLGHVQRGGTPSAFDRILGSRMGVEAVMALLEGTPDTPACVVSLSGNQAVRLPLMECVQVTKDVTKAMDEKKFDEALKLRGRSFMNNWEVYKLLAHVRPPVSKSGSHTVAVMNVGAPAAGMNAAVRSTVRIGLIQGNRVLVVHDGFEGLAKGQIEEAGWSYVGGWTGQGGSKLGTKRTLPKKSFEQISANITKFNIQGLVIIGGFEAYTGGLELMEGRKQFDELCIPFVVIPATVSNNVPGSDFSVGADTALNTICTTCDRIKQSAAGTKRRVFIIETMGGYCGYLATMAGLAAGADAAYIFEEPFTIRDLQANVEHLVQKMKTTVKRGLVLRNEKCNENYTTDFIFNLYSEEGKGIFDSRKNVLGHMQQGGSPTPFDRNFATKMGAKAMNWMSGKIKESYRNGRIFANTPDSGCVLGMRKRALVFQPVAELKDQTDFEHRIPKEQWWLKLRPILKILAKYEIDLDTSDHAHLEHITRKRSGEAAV
Protocol: (§1) To evaluate the ability of selected compounds to suppress the activities of the recombinant human native and modified PFK-M and PFK-L enzymes, they were constructed in yeast S. cerevisiae as a host organism (S1 Text), partially purified, and their activities assayed (S2 Text).
(§2) S2 Text: PFK1 Enzymatic assays.
(§3) PFK1 activities were determined spectrophotometrically at 340 nm (Lambda 25 UV/VIS spectrophotometer, Perkin Elmer) as reported previously using a coupled reaction system. Unless otherwise stated, in a final volume of 1 mL, the assay mixture contained 50 mM HEPES buffer (pH 7.8), 1 mM DTE, 100 mM KCl, 5 mM MgCl2, 0.2 mM NADH, 0,025 to 2 mM F6P, 10% v/v polyethylene glycol (PEG 6000), 0.9 U/mL aldolase (Sigma-Aldrich, Steinheim, Germany), 15 U/mL triosephosphate isomerase, and 15 U/mL glycerol-3-phosphate dehydrogenase (Sigma-Aldrich, Steinheim, Germany). Before use, the auxiliary enzymes were dialyzed overnight at 4 °C against 50 mM HEPES buffer (pH 7.8) containing 1 mM DTE, with one buffer […]
(§4) induce inhibition. The enzyme concentration used in the kinetic assay was 0.2 µg/mL. […] Total protein concentrations of the samples were determined using a Bio-Rad protein assay (Bio-Rad, Hercules, Ca) with bovine y-globulin […]

[2] = target: T2, modified sfPFK-M enzyme (47 kDa fragment) (Homo sapiens, UniProt P08237); assay: PFK1 enzymatic assay, modified sfPFK-M; assay type: biochemical
T2 sequence (P08237 2-390 limits assumed): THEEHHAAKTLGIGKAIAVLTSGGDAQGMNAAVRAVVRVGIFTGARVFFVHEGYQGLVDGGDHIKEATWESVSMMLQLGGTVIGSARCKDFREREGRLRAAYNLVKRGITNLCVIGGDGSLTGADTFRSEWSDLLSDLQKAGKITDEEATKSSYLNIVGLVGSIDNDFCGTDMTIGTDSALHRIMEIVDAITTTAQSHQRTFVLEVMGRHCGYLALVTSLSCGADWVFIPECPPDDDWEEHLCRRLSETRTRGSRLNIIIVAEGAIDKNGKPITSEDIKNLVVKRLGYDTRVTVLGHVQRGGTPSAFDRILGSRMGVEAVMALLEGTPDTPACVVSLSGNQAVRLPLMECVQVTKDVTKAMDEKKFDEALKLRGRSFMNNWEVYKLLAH
Protocol: as §1, §2, §3, §4

MDA-MB-231 cells [3] = assay: Dose-dependent inhibition of lactate formation; assay type: cell-based; conditions: 20, 40, 60, 80 µM, up to 72 hours
Protocol: (§5) If not specified differently, the tumorigenic cells were plated in the RPMI 1640 GlutaMax medium (Thermo Fisher Scientific, Waltham, MA, USA) supplemented with 10% FBS at the concentration of 5 × 10^5 cells per mL. The cells were incubated at 37 °C and 5% CO2. Different concentrations of specific inhibitors were added to the medium at the beginning of inoculation. An adequate amount of DMSO used in the solution with the specified concentrations of compounds was added to the vehicle.
(§6) For measuring lactate concentrations in the medium, 20 µL samples were taken at specified time intervals, centrifuged at 1200 rpm for 5 minutes at 4 °C and 15 µL supernatants were preserved at 4 °C until analyzed.
(§7) Lactate levels were assessed enzymatically using an L-Lactic acid assay kit (K-LATE, Megazyme, Bray, Ireland) and measured according to the manufacturer’s instructions.
(§8) The lactate formation, growth yield, and survival under normal and inhibitory conditions of four tumorigenic cell lines were investigated. […] Cells were grown in the presence of vehicles or inhibitors at different concentrations (20, 40, 60, and 80 µM), and lactate levels in the supernatant were determined sequentially.

Caco-2 cells [4] = assay: Dose-dependent inhibition of lactate formation; assay type: cell-based; conditions: 20, 40, 60, 80 µM, up to 72 hours
Protocol: as §5, §6, §7, §8

Jurkat cells [5] = assay: Dose-dependent inhibition of lactate formation; assay type: cell-based; conditions: for Stability of the compounds during incubation, indicated by increasing lactate formation in later phases: Jurkat cell culture medium, after 24 hours up to 72 hours; for Lactate formation in the first 24 hours: Jurkat cells, 20, 40, 60, 80 µM, regardless of concentration, later dose-dependent lactate production up to 72 hours
Protocol: as §5, §6, §7, §8

MDA-MB-231 cells [6] = assay: Cytostatic assay (XTT cell proliferation); assay type: cell-based; conditions: up to 80 µM, 72 hours
Protocol: (§9) Untreated cells and cells treated with different concentrations of inhibitors were incubated for 72 hours before alive cellular biomass was determined according to the manufacturer’s instructions.

Caco-2 cells [7] = assay: Cytostatic assay (XTT cell proliferation); assay type: cell-based; conditions: up to 80 µM, 72 hours
Protocol: as §9

COLO 829 cells [8] = assay: Cytostatic assay (XTT cell proliferation); assay type: cell-based; conditions: up to 80 µM, 72 hours
Protocol: as §9

Jurkat cells [9] = assay: Cytostatic assay (XTT cell proliferation); assay type: cell-based; conditions: 20-80 µM
Protocol: as §9
To investigate possible cytostatic effects of the inhibitors, the total cell number of Jurkat cells treated with vehicles of different concentrations of inhibitors was determined immediately after incubation.

[10] = system: all tumorigenic cell lines tested; assay: ROS/SOX reduction by sequential re-insertion, statement for all lines; assay type: cell-based; conditions: sequentially re-added every 24 hours
Protocol: After 78 hours cells were washed by centrifugation, and an aliquot of 1 × 10^5 cells was placed into 1 mL of phenol red-free IMDM medium (Thermo Fisher Scientific, Waltham, MA, USA) supplemented with 10% of FBS. The cells were incubated for an additional 3 hours before measurement.
For detecting ROS and SOX levels in the cells, 100 µL of medium was washed with PBS by standard centrifugation protocol and then placed into a well on the 96-well black wall/clear bottom plate. To each well 100 µL ROS detection reagent (Green) and SOX detection reagent (Orange) were added as specified in the Cellular ROS/SOX Detection Assay Kit (ab139476 Abcam, Cambridge, UK). For measuring superoxide Cellular Superoxide Detection Assay Kit (ab139477 Abcam, Cambridge, UK) was used that contains “Orange” but not the “Green” reagent.

COLO 829 cells [11] = assay: Dose-dependent inhibition of lactate formation; assay type: cell-based; conditions: 20, 40, 60, 80 µM, up to 72 hours
Jurkat cells [12] = assay type: cell-based
Protocol: (§10) As a negative control, 100 µL Triton X-100 was added to wells containing 1mL medium with cells. For the survival evaluation in the dose-dependent tests, the measurements were conducted at the end of incubation at 72 hours of growth in the medium.
The potential cytotoxicity of the inhibitors was also assessed. At the end of the incubation, the average percentage of dead cells was determined in the presence of a vehicle and a 80 µM concentration of each inhibitor.

MDA-MB-231 cells [13] = assay type: cell-based; conditions: 72 hours
Protocol: as §10

Caco-2 cells [14] = assay type: cell-based; conditions: 72 hours
Protocol: as §10

COLO 829 cells [15] = assay type: cell-based; conditions: 72 hours
Protocol: as §10

[16] = target: T3, modified sfPFK-L enzyme (70 kDa fragment) (Homo sapiens, UniProt P17858); assay: PFK1 enzymatic assay, modified sfPFK-L; assay type: biochemical
T3 construct: 45.920 Da [2] and short PFK-L of 69.942 Da fragments [3], respectively; made in house; host or cells: Saccharomyces cerevisiae pfk-null HD-114-8A
T3 sequence (P17858 2-648): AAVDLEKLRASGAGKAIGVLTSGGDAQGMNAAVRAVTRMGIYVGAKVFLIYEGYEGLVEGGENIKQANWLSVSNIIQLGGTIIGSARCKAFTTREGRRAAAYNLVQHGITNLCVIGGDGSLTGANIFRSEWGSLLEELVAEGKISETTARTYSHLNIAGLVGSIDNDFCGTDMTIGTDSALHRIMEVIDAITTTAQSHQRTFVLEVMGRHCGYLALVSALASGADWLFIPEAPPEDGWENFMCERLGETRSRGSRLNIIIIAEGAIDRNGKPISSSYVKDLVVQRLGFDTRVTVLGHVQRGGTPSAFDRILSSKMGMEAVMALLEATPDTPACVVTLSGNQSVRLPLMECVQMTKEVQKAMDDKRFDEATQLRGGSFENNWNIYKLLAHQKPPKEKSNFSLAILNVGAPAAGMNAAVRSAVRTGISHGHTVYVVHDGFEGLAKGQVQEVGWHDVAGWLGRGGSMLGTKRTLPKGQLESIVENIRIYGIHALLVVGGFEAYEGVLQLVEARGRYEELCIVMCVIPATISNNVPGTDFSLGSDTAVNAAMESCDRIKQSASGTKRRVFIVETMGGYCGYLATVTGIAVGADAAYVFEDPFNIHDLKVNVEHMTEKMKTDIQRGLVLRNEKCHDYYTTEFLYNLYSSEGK
Protocol: as §1, §2, §3, §4

[17] = 10 µM sequentially added every 24 hours

`O=C(CSc1nnc(-c2ccc3c(c2)OCO3)o1)Nc1ccon1` [cmpd No. 3, 2-[(5-benzo[1,3]dioxol-5-yl-1,3,4-oxadiazol-2-yl)sulfanyl]-N-isoxazol-3-yl-acetamide] was tested, and the IC50 [1] was 18 µM and the IC50 [2] was 15 µM and ~15 µM.
`COc1ccc(-c2cccc(-c3ccn(Cc4noc(C)n4)n3)c2)nn1` [cmpd No. 9, 3-methoxy-6-(3-{1-[(5-methyl-1,2,4-oxadiazol-3-yl)methyl]-1H-pyrazol-3-yl}phenyl)pyridazine] was tested, and the “Lactate suppression, dose-dependent test” value (MDA-MB-231 cells [3]) was “Dose-dependent effects”, the “Lactate accumulation, dose-dependent test” value (Caco-2 cells [4]) was “dose-dependent reduction in lactate accumulation” and the “Stability of the compounds during incubation, indicated by increasing lactate formation in later phases” value (Jurkat cells [5]) was “instability”. The “Lactate formation in the first 24 hours” value (Jurkat cells [5]) was “no or only small amounts of lactate”, the “Cytostatic effect (total cell number)” value (MDA-MB-231 cells [6]) was “No significant differences in total cell number” and the “Cytostatic effect (total number of cells at the end of incubation)” value (Caco-2 cells [7]) was “no adverse effects on cell growth”. For the same compound, the “Cytostatic effect (total cell number compared to the control)” value (COLO 829 cells [8]) was “No significant differences in the total cell number”, the “Cytostatic effect (cells counted after 72 hours of incubation)” value (Jurkat cells [9]) was “no significant cytostatic” and the “Reduction of ROS formation” value ([10]; 5 µM) was “approximately 50%”. For the same compound, the “Reduction of ROS formation” value ([10]; 10 and 20 µM) was “approximately 65%”, the “Lactate formation, dose-dependent test” value (COLO 829 cells [11]) was “Apparent dose-dependent effects of suppressed lactate formation” and the “Average percentage of dead cells” value (Jurkat cells [12]; 80 µM, end of incubation 72 hours) was 3.74 ± 0.3%. For the same compound, the “Average percentage of dead cells, sequentially treated” value (Jurkat cells [12]; 10 µ L sequentially added every 24 hours, 72 hours) was 3.24 ± 0.25%, the “Average percentage of dead cells, sequentially treated” value (MDA-MB-231 cells [13]; [17]) was 2.35 ± 0.09% and the “Average percentage of dead cells” value (MDA-MB-231 cells [13]; dose-dependent test) was 6.59 ± 0.29%. For the same compound, the “Average percentage of dead cells, sequentially treated” value (Caco-2 cells [14]; [17]) was 4.03 ± 0.32%, the “Average percentage of dead cells” value (Caco-2 cells [14]; dose-dependent test, different concentrations of inhibitors) was 3.33 ± 0.14% and the “Average percentage of dead cells, sequentially treated” value (COLO 829 cells [15]; [17]) was 2.84 ± 0.19%. The “Average percentage of dead cells” value (COLO 829 cells [15]; dose-dependent test) was 3.65 ± 0.78%.
With `Nc1nnc(-c2cc(-c3ccc(O)cc3)on2)o1` [cmpd No. 30, 4-[3-(5-amino-1,3,4-oxadiazol-2-yl)isoxazol-5-yl]phenol] the “Lactate suppression, dose-dependent test” value (MDA-MB-231 cells [3]) was “Dose-dependent effects”, the “Lactate accumulation, dose-dependent test” value (Caco-2 cells [4]) was “dose-dependent reduction in lactate accumulation” and the “Stability of the compounds during incubation, indicated by increasing lactate formation in later phases” value (Jurkat cells [5]) was “instability”. For the same compound, the “Lactate formation in the first 24 hours” value (Jurkat cells [5]) was “no or only small amounts of lactate” and the IC50 [16] was 8 µM.
